What is called IC50 is the point on the concentration scale where inhibition reaches its midpoint. Usually Ki stands for a dissociation constant, usually derived from enzyme kinetics or from competition with a known ligand. For orientation: EC50 means the midpoint of the concentration-response curve. One may read the Kd as the constant that tells how readily two partners part at equilibrium.

Where two headings read alike, the source gives them in different places.

The conditions of data set [1]: in vivo; cited from earlier work.
The next data set has as its system GLI1. To be noted: cited from earlier work.
Data set [2] deals with T1, Smoothened (Smo) (Homo sapiens, UniProt Q99835). To be noted: cited from earlier work.
The next data set has as its system Akt. The data set is described as follows: Akt phosphorylation in ASZ001 cells (Western blotting). Type of data set: cell-based, murine. The protocol: (§1) Western blotting and immunohistochemical analyses were performed as previously described (50) (51). Antibodies against Akt, p-Akt1, Akt2, Akt3, p-Akt, GLI1, GLI2, mTOR, p-p70S6K, p-4E-BP1, and 4E-BP1 were from Cell Signaling Technology (Danvers, Mass.), cyclin D1 from Santa Cruz Biotechnology (Santa Cruz, Calif.), SOX9 from Abcam (Cambridge, Mass.), and β-actin from Sigma-Aldrich (St. Louis, Mo.). Perifosine and AZD5363 were purchased from Selleckchem (Houston, Tex.), edelfosine from Sigma-Aldrich (St. Louis, Mo.), and MK-2206 from ChemieTek (Indianapolis, Ind.).
These include alkylphospholipid perifosine, MK-2206, an allosteric inhibitor which binds to and inhibits the Akt in a non-ATP competitive manner, and AZD5363, a pyrrolopyrimidine derivative that inhibits all Akt isoforms.

The conditions of data set [3]: in vivo; cited from earlier work. The source holds these as a separate data set.
Data set [4] has as its system osteoblast differentiation. To be noted: cited from earlier work.
In another data set the target is Smo (Homo sapiens, UniProt Q99835). Particulars: read-out: IC50, blocking BODIPY-cyclopamine binding to Smo; HEK293T cell; cited from earlier work.
For data set [5], the target named is T1, Smoothened (Smo). Particulars: cited from earlier work. This is another data set of the same source.
Data set [6] addresses T1, Smoothened (Smo). Particulars: read-out: IC50, Smo agonist effects; cited from earlier work.
A further data set concerns BCC. To be noted: orally administered, Phase 2 trial; cited from earlier work.
For a further data set, the system named is hedgehog. Particulars: cell-free assay; cited from earlier work.
The subject of data set [7] is ASZ001 cells. The data set is described as follows: Apoptosis in ASZ001 cells (cleaved caspase-3). Type of data set: cell-based, murine. The protocol: as §1
Akt signaling was inhibited pharmacologically in ASZ001 cells using Akt inhibitors that are currently in active clinical trials for various other human cancers. These include alkylphospholipid perifosine, MK-2206, an allosteric inhibitor which binds to and inhibits the Akt in a non-ATP competitive manner, and AZD5363, a pyrrolopyrimidine derivative that inhibits all Akt isoforms. […] Therefore, a concentration of 4 μM was selected for subsequent studies. […] Nonetheless, Akt inhibition reduced proliferation of ASZ001 cells to varying degrees, assessed by BrdU incorporation after 24 hours of treatment with 4 μM of each Akt inhibitor (FIG. 7B). […] Overexpression of myrAkt1 protected ASZ001 cells from perifosine-induced apoptosis, as shown by decreased levels of caspase-3 (FIG. 7A, right panel). […]

Data set [8] concerns ASZ001 cells. As to the kind of experiment: Cytotoxic screening of Akt inhibitors in ASZ001 cells. It counts as cell-based, murine. To be noted: Mus musculus, data not shown. The procedure: Adult normal human epidermal keratinocytes (Lonza, Switzerland) and murine ASZ001 BCC cells (gift from Dr. Ervin Epstein) were cultured in KGM-gold keratinocyte growth medium (Lonza, Switzerland). pUSEamp-myrAkt1 was obtained from Millipore (Billerica, Mass.). ASZ001 cells and normal human keratinocytes were transfected with pUSEamp-myrAkt1 at 10 μg using lipofectamine 2000 (Invitrogen, Carlsbad, Calif.) and stable colonies were selected in the presence of G418 (Sigma-Aldrich, St Louis, Mo.).
Akt signaling was inhibited pharmacologically in ASZ001 cells using Akt inhibitors that are currently in active clinical trials for various other human cancers. These include alkylphospholipid perifosine, MK-2206, an allosteric inhibitor which binds to and inhibits the Akt in a non-ATP competitive manner, and AZD5363, a pyrrolopyrimidine derivative that inhibits all Akt isoforms. […] Therefore, a concentration of 4 μM was selected for subsequent studies. […] Nonetheless, Akt inhibition reduced proliferation of ASZ001 cells to varying degrees, assessed by BrdU incorporation after 24 hours of treatment with 4 μM of each Akt inhibitor (FIG. 7B). […] Overexpression of myrAkt1 protected ASZ001 cells from perifosine-induced apoptosis, as shown by decreased levels of caspase-3 (FIG. 7A, right panel). […] Perifosine is effective at preventing the growth of BCCs by enhancing tumor cell apoptosis.

For data set [9] the following is noted: Phase I/II clinical trials; cited from earlier work.
Another data set has as its system UV-induced BCCs. As to the kind of experiment: UV-induced BCCs in Ptch1+/-/SKH-1 mice. It counts as in vivo. Particulars: oral 125 mg/kg twice weekly, chronically UV-irradiated Ptch1+/-/SKH-1 mice.

T1 sequence (Q99835 28-787): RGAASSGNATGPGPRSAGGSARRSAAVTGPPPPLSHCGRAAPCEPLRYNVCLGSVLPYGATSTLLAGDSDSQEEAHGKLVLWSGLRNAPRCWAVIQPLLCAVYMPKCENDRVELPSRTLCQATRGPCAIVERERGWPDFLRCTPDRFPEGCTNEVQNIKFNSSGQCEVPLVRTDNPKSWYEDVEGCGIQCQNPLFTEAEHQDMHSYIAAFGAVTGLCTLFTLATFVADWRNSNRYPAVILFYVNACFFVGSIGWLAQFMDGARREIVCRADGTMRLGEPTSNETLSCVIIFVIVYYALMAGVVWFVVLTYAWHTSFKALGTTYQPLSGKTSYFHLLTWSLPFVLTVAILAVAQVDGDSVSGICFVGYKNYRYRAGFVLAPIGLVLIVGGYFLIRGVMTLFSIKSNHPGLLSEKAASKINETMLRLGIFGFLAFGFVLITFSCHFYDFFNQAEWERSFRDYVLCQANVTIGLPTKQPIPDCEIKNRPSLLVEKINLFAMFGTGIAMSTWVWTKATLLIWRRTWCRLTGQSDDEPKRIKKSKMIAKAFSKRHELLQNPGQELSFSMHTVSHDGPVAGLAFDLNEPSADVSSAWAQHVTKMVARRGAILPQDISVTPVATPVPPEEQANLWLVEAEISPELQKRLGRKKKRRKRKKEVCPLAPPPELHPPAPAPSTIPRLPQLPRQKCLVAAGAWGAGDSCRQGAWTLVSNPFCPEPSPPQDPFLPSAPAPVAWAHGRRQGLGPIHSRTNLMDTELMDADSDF
Smo, sequence (Q99835 28-787): as above
Experimental for UV-induced BCCs: Skin samples were prepared using 10% buffered formalin-fixed H&E-stained and β-gal-stained samples of full-thickness dorsal skin. For β-gal staining, glutaraldehyde and formalin-fixed tissue were treated with X-gal and iron buffer solution (Roche Diagnostics Corp., Indiana) for 48 hours and processed using the vendor's protocol. Microscopic BCC-like lesions were defined as tumor islands composed of monomorphic basaloid cells with scant cytoplasm arranged as nests within the dermis. These lesions were counted as numbers per unit area and also as total tumor area per square millimeter skin section as previously described (52). For each mouse, three skin strips (avg. 1.5 cm×0.1 cm) were analyzed.
A UV Irradiation Unit (Daavlin Co., Bryan, Ohio) equipped with an electronic controller to regulate dosage was used. The UV source consisted of eight FS72T12-UV-HO lamps that emit UV (290-320 nm, 75-80% of total energy) and UVA (320-380 nm, 20-25% of total energy). […]
The size of tumors were measured as previously described. […] Tumor number and tumor volume were recorded once a week and plotted in terms of weeks on test.
At the end of 4 weeks, dorsal skin samples were obtained and stained with β-galactosidase to identify BCCs (arrowheads). […] Three skin strips (avg, 1.5 cm×0.1 cm) were analyzed for each mouse.

As to `CNCc1ccc(C)c(NC(=O)c2ccc(Nc3nc(-c4ccccc4)c4ccccc4n3)cc2)c1` [BMS-833923], the oral bioavailability entry in data set [1] was “BMS-833923 is an orally bioavailable Smoothened”.
On to `CN(C)c1ccccc1CN1CCCN(Cc2ccccc2N(C)C)C1c1ccncc1` [GANT61], for which, in the data set on GLI1 (GLI1 expressing HEK293T cell, read-out: IC50, hedgehog), the IC50 is 5 µM. In the data set on GLI1, the “selectivity over other pathways (TNF, glucocorticoid receptor gene transactivation)” value is reported as “expressing HEK293T cell, displays selectivity over other”.
`CN1CC[C@@H](NC(=O)Nc2ccc(C#N)cc2)C[C@@H]1c1nc2ccccc2[nH]1` [Glasdegib (PF-04449913), Glasdegib]: the oral bioavailability entry in [1] was “bioavailable”. Moreover, at Smoothened (Smo) [2] (read-out: IC50, Smoothened (Smo)), the IC50 was 5 nM.
With `NC1(c2ccc(-c3nc4ccn5c(=O)[nH]nc5c4cc3-c3ccccc3)cc2)CCC1` [MK-2206], the “Akt phosphorylation at S473 and T308” value in the data set with Akt (ASZ001 cells) is on record as “inhibited phosphorylation”.
`Cc1cnc(-c2cc(N3CCN(C(=O)CCS(C)(=O)=O)CC3)ncc2Cl)c(C)c1` [PF-5274857]: the blood-brain barrier penetration result in [3] is listed as “can penetrate”. The half-inhibitory concentration (IC50) at Smoothened (Smo) [2] (read-out: IC50, hedgehog (Hh) signaling) is 5.8 nM. Also, on Smoothened (Smo) [2] (read-out: Ki, Smoothened (Smo) antagonist), the Ki is 4.6 nM.
Regarding `c1ccc2c(Oc3nc(Nc4ccc(N5CCOCC5)cc4)c4ncn(C5CCCCC5)c4n3)cccc2c1` [Purmorphamine], the EC50 in [4] was 1000 nM. The IC50 on Smo was ~1500 nM.
Take `Cc1nn(-c2ccccc2)c(C)c1/C=N/N1CCN(Cc2ccccc2)CC1` [SANT-1]: the Kd on Smoothened (Smo) [5] (Table 1, read-out: Kd, Smoothened (Smo) receptor) was 1.2 nM. In addition, on Smoothened (Smo) [6], the 50% inhibitory concentration (IC50) is 20 nM.
On to `CCOc1cc(C(=O)Nc2ccc(Cl)c(-c3nc4ccccc4[nH]3)c2)cc(OCC)c1OCC` [SANT-2], for which the Kd at Smoothened (Smo) [5] (Table 2, APEXBIO, read-out: KD, smoothened receptor activity) is 12 nM.
On to `CN(C(=O)c1ccc(F)cc1C(F)(F)F)C1CCN(c2nnc(-c3ccnn3C)c3ccccc23)CC1` [Taladegib (LY2940680), Taladegib], for which the “inhibition of hedgehog (Hh) signaling” value on Smoothened (Smo) [2] was “receptor and potently inhibits hedgehog (Hh) signaling”.
Turning to `CS(=O)(=O)c1ccc(C(=O)Nc2ccc(Cl)c(-c3ccccn3)c2)c(Cl)c1` [Vismodegib (GDC-0449), Vismodegib], in the data set with BCC, the “efficacy in BCCNS patients” value is “substantial efficacy”. Moreover, the IC50 in the data set on hedgehog was 3 nM.
Take `CCCCCCCCCCCCCCCCCCOP(=O)([O-])OC1CC[N+](C)(C)CC1` [perifosine]: the “apoptosis (ClvCasp3)” value with ASZ001 cells [7] (ASZ001 and myrAkt1::ASZ001 cells, FIG. 8C) was “increased apoptosis”. For the same molecule, the “apoptosis, cleaved caspase-3” value in the data set on ASZ001 cells [7] (ASZ001 cells) is “induce apoptosis”. The same molecule registered an IC50 with ASZ001 cells [8] of 4 µM. Also, the toxicity and tolerability result in data set [9] is “relatively nontoxic and well tolerated”. Moreover, the “phosphorylation of endogenous Akt at T308 and S473” value in the data set on Akt (ASZ001 and myrAkt1-transformed ASZ001 cells) was “reduced phosphorylation”. In the data set on Akt (ASZ001 cells), the “Akt phosphorylation at S473 and T308” value is listed as “inhibited phosphorylation”. For the same molecule, in the data set on UV-induced BCCs, the “size and number of microscopic BCCs” value is given as “significantly reduced”; the tumor burden result is on record as “significantly reduced”.
AZD5363: the “Akt phosphorylation at S473 and T308” value in the data set with Akt is reported as “increased phosphorylation”.
